Laboratory results: US5849900A, “Inhibition of viruses by antisense oligomers capable of binding to polypurine rich tract of single-stranded RNA or RNA-DNA hybrids” (Max-Planck-Gesellschaft zur Forderung der Wissenschafter …, priority 1995, dated 1998)

Assays:
[1] = tested on: PPT region of single-stranded RNA; RNase H; experiment: Protection of single-stranded RNA from RNase H cleavage by chimeric oligonucleotides 5'-A-B-C-3' (Example 4); format: biochemical, HIV-1; details: for oligonucleotide concentration that inhibited cleavage to 50%: 50-fold molar excess of the oligonucleotide over the template
Experimental: Chimeric oligonucleotides of the basic formula 5'-A-B-C-3' were tested with single-stranded RNA in a two-strand system. […] (Personal communication.) Average protection from cleavage was about 50%.
Protection from RNase H was monitored as above. Specifically, protection was monitored in vitro using RNA which was radioactively labeled at its 5'-end. Cleavage was analyzed on a sequencing gel. Cleavage within the PPT region of the RNA leads to a band of about 80 nucleotides. Protection from cleavage results in an uncleavaged full-length RNA. The amount of cleaved versus uncleaved RNA was monitored by phosphoimager.

RT = experiment: Inhibition of the RT by TFO-A variants; format: biochemical, HIV-1
Text: Through these studies, it was learned that the two bulges are essential for protection of RNA and that the overhanging 5'- and 3'-ends can be shortened. Variances numbered 5037 (SEQ ID NO:26) and 5074 (SEQ ID NO:21) inhibited cleavage to 50% at 50-fold molar excess of the oligonucleotide over the template, i.e., about one μM oligonucleotide.

[2] = tested on: PPT of HIV-1 viral RNA (pKJ2 RNA); experiment: cDNA elongation / premature termination of cDNA synthesis on single-stranded viral RNA (Example 1); format: biochemical; details: antisense oligonucleotide hybridized with single-stranded HIV-1 RNA; HIV-1 RT
Experimental: HIV-1 viral RNA was transcribed in vitro from a construct containing a T7 promoter along with the PPT, which consists of the sequence: AAAAGAAAAGGGGGGA (SEQ ID NO: 1) or […] (SEQ ID NO: 2) when extended within the 3' LTR and 2 non-purines are included. The viral RNA, corresponding to pKJ2, consisted of 134 nucleotides. A ^32 P end-labeled antisense oligonucleotide was hybridized with the RNA. The cDNA reaction products were analyzed on 10% polyacrylamide TEE-urea gels. Details of the procedure are as follows:
To the standard reaction mixture described in Example 2 below were added a 125 μM quantity of one of the ddNTPs and each of the other three dNTPS and 4 units of HIV-1RT. The reactions were started by the addition of approximately 3 pmol of hybrid RNA (low specific activity) and treated as described above. To check for cDNA elongation, the same test was carried out, except with unlabeled in vitro transcribed RNA hybridized to a 10:1 mixture of unlabeled to labeled oligonucleotide. Aliquots were analyzed by electrophoresis on 10% TEE-urea-polyacrylamide gels.
The RNase H reaction was carried out in a total volume of 500 μL in RNase H buffer containing 1000 units of RNasin and 25 units of HIV-1RT/RNase H. After the reaction was started by the addition of 8 pmol of an unlabeled RNA-DNA oligonucleotide hybrid, the sample was divided into five aliquots of 100 μL and incubated for 30 minutes at 37° C., and the reaction was stopped at 95° C. for 5 minutes. The samples were placed on ice and to each was added 10 units of DNase I to remove the DNA oligonucleotide. After 10 minutes, the samples were incubated further at 37° C. for 10 minutes. The reactions were stopped at 95° C. for 10 minutes. […] Aliquots were analyzed by electrophoresis on an 8% TBE-urea-polyacrylamide gel together with dideoxy sequencing ladders generated with the same ^32 P-end-labeled DNA oligonucleotide primer on a single-stranded M13 DNA template harboring the corresponding DNA fragment. […]

[3] = tested on: pKJ2 RNA hybridized with 40-mer deoxyribonucleotide complementary to the PPT region; RNase H; experiment: RNase H cleavage inhibition on pKJ2 RNA-DNA hybrid, phosphoimager quantitation (Example 3); format: biochemical, HIV-1; details: for IC50: range of concentrations, FIG. 4, phosphoimager, read-out: concentration that inhibited the RNase H by 50%
Experimental: In vitro transcribed, 5'end-labeled pKJ2 RNA of 134 nucleotides in length was hybridized with a 10-fold excess of a 40-mer deoxyribonucleotide complementary to the PPT region. Volkmann, et al., Biochimie, 1993, 75, 71-78. Hybridizations were carried out in 25 mM Tris-acetate buffer (pH 6.8) containing 50 mM NaCl, 10 mM β-mercapotoethanol and 0.4 mM spermine hydrochloride. The mixture was incubated for 3 minutes at 90° C., then cooled slowly to room temperature. For triplex-formation, 1 pmol hybrid substrate was incubated with either 10 or 100 pmol oligodeoxynucleotide overnight at 37° C. Finally, each sample was treated with 12 ng enzyme in 10 microliters RNase H-standard buffer (see Example 2) for 30 minutes at 37° C. RNase H cleavage reaction was stopped by incubation at 96° C. for 2 minutes. Samples were ethanol-precipitated and analyzed on 10% polyacrylamide-TEE-urea gel. The gel was visualized by autoradiography and analyzed with a phosphoimager (Molecular Dynamics). GT purine-pyrimidine mixed DNA oligonucleotides and RNA oligonucleotides were analyzed and compared with a 25-mer pyrimidine sequence in parallel (Seq ID No: 3) and antiparallel (Seq ID No: 42) orientation. To quantitate the effects of the oligonucleotides, the amounts of uncut RNA were determined. The oligonucleotides tested are listed below:
Oligonucleotides GT1, GT2, and GU1 were tested further at a range of concentrations. The concentrations of the remaining materials were as previously. The quantitative plots of phosphoimager results for GT1, GT2, and GU1 are depicted in FIG. 4. GT1 inhibited the RNase H by 50% at 5.0 μM, and GU1 inhibited 50% at 0.5 μM.

[4] = 1 pmol hybrid with 10 or 100 pmol oligonucleotide

“5037: TFO-A variant, sequence shown only as drawing in Table 6 (TTTTCTTTTGGGGGGTTTGGTTGGGTTTTCCCTTCCAGTCCCCCCTTTTCTTTT; chemistry not given here) [compound 5037]” was tested, and the “oligonucleotide concentration that inhibited cleavage to 50%” value [1] was “about one” and the “concentration at which ninety-five percent inhibition of the RT occurred” value (RT) was “about 25 μM”.
In the case of “AGGGGATTTGGTTGGGTTTTCCCTTCCAGTCCCCC (chemistry not given here) [compound 5074, TFO-A variant]”, the “oligonucleotide concentration that inhibited cleavage to 50%” value [1] is reported as “about one” and the “concentration at which ninety-five percent inhibition of the RT occurred” value (RT) is reported as “about 25 μM”.
“AGTCCCCCCTTTTCTTTTAA (chemistry not given here) [SEQ ID NO: 10, antisense 20-mer covering the PPT]” was tested, and the “blocking of cDNA synthesis (inhibition of cDNA elongation)” value [2] was 100%.
“CCCTTCCAGTCCCCCCTTTTCTTTT (chemistry not given here) [PY2]” was tested, and the “inhibition of RNase H (degree, in words)” value [3, 4] was “lowest degree of inhibition”.
With “CCGCCCAGGCCACGCCTCCC (chemistry not given here) [SEQ ID NO: 11, control antisense 20-mer outside the PPT region, reference compound]” the “blocking of cDNA synthesis (inhibition of cDNA elongation)” value [2] was 20-50%.
“TFO F1: TFO F derivative that formed a pseudocircle due to a complementary tail (GCATGCCCTTTTCTTTTCCCCCCTTTTTTCCCCCCTTTTCTTTTCCGCATGC; forms pseudocircle through self-complementary tail, further chemistry not given here)” was tested, and the “inhibition of RNase H” value [1] was “about 80%”.
“TGAATTAGCCCTTCCAGTCCCCCCTTTTCTTTTAAAAAGT (chemistry not given here) [SEQ ID NO: 9, antisense 40-mer covering the PPT]” was tested, and the “blocking of cDNA synthesis (inhibition of cDNA elongation)” value [2] was 100%.
With “TTTTCTTTTGGGGGGTTTGGTTGGGTTTTCCCTTCCAGTCCCCCCTTTTCTTTT (chemistry not given here) [TFO A, 54-mer, partially self-complementary, hairpin-type stem-looped structure]” the “inhibition of cleavage (in words)” value ([1]; at concentrations less than one nanomolar, in vitro) was “completely inhibited cleavage”.
In the case of “TTTTGTTTTGGGGGGTGTGGTTGGG (chemistry not given here) [TFO 1', 25-mer GT triplex-forming oligonucleotide]”, the IC50 [3] is reported as 5 µM.
“UUUUGUUUUGGGGGGUGUGGUUGGG (chemistry not given here) [GU1, the RNA oligonucleotide tested]” was tested, and the “inhibition of RNase H” value [3, 4] was roughly 100% and the IC50 [3] was 0.5 µM.
For “Us Us Us Us Cs Us Us Us Us Cs Cs Cs Cs Cs Cs Us TTTTTCCCCC TTTTCTTTT (UUUUCUUUUCCCCCCUTTTTTCCCCCCTTTTCTTTT; phosphorothioate backbone, chemistry not fully specified) [Rs RD]”, the protection from cleavage ([1]; at equimolar concentration) was “One hundred percent” and the “inhibition (protection from RNase H)” value ([1]; at the same concentration as the phosphodiester) was 100%.
